Laboratory results: patent US6967196B1, “Sulfonamide compounds and uses thereof” (Bristol-Myers Squibb Company, priority 1999, dated 2005)
Where a name gives a salt, the structure may show the parent alone. Read-outs that look alike come from different tables or passages of the source.

Test system: amyloid β production in transfected H4 (human neuroglioma) cells stably expressing APP constructs
Assay: In vitro cell-based assay of inhibitors of amyloid β production (ELISA)
Conditions: amyloid β in medium by ELISA, read-out: ACTIVITY (IC50, inhibition of amyloid β production)
How it was run: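 Plate wt/variant APP cells; ≥6 h later swap to medium + compound (10-100 μM screen); incubate ~16 h; sample medium; Aβ ELISA with C-terminal capture / N-terminal detection Abs; quantify vs Aβ standard curve.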

[1] = Homo sapiens, 16 h, transfected H4 cells stably expressing APP, approximately 16 hours incubation
[2] = transfected H4 cells stably expressing APP, approx. 16 h incubation
[3] = Homo sapiens, 16 h, transfected H4 cells expressing APP, approximately 16 hours incubation
[4] = Homo sapiens, 16 h, transfected H4 cells stably expressing APP, approximately 16 hours incubation, Table B
[5] = transfected H4 cells stably expressing APP, approximately 16 hours incubation, Table B
[6] = transfected H4 cells stably expressing APP constructs, approximately 16 hours incubation

O=S(=O)(c1ccc(Cl)cc1)N(Cc1cc(Cl)ccc1OCCCN1CCC(O)CC1)c1ccccc1 [Example 1011, 4-chloro-N-{5-chloro-2-[3-(4-hydroxy-1-piperidinyl)propoxy]benzyl}-N-phenylbenzenesulfonamide hydrochloride]
IC50 [1]: > 500 nM

Cc1ccc(OCCCN2CCCCC2)c(CN(c2cc(F)ccc2F)S(=O)(=O)c2ccc(Cl)cc2)c1 [Example 957, 4-chloro-N-(2,5-difluorophenyl)-N-{5-methyl-2-[3-(1-piperidinyl)propoxy]benzyl}benzenesulfonamide hydrochloride]
IC50 [1]: > 500 nM

O=S(=O)(c1ccc(Cl)cc1)N(Cc1c(OCCCN2CCCCC2)ccc2ccccc12)c1cc(F)ccc1F [Example 1025, 4-chloro-N-(2,5-difluorophenyl)-N-(2-{2-[3-(1-piperidinyl)propoxy]-1-naphthyl}methyl)benzenesulfonamide hydrochloride]
IC50 (transfected H4 cells stably expressing APP, approximately 16 hours incubation): > 500 nM

CCOc1ccc(C(=O)N(C)CCCOc2ccccc2C(C)N(c2cc(F)ccc2F)S(=O)(=O)c2ccc(Cl)cc2)cc1 (stereo not shown) [Example 768]
IC50 [2]: 100 to 500 nM

O=S(=O)(c1ccc(Cl)cc1)N(Cc1ccccc1OCCCN1CCCCC1)c1ccccc1Br [Example 866, N-(2-bromophenyl)-4-chloro-N-{2-[3-(1-piperidinyl)propoxy]benzyl}benzenesulfonamide hydrochloride]
IC50 [1]: 100 to 500 nM

CCN(CCOc1ccccc1C(C)N(c1cc(F)ccc1F)S(=O)(=O)c1ccc(Cl)cc1)C(=O)NC(C)(C)C (stereo not shown) [Example 709, N-[1-(2-{2-[[(tert-butylamino)carbonyl](ethyl)amino]ethoxy}phenyl)ethyl]-4-chloro-N-(2,5 difluorophenyl)benzenesulfonamide]
IC50 (Homo sapiens, 16 h, transfected H4 cells stably expressing APP, approx. 16 h incubation): 100 to 500 nM

C[C@H](C(=O)NCCCCCCO)N(c1cc(Cl)ccc1F)S(=O)(=O)c1ccc(Cl)cc1 [Example 1350]
IC50 [3]: 100 to 500 nM

C[C@H](C(=O)N[C@@H]1CC2CCC1C2)N(c1cc(Cl)ccc1F)S(=O)(=O)c1ccc(Cl)cc1 (stereo partly shown) [Example 627]
IC50 [2]: 100 to 500 nM

N-{3-[2-(1-{[(4-chlorophenyl)sulfonyl]-2,5-difluoroanilino}ethyl)phenoxy]propyl}-4-methylbenzamide [Example 707]
IC50 [2]: 100 to 500 nM

C[C@H](c1ccccc1CCC(=O)NCc1ccc2c(c1)OCO2)N(c1cc(F)ccc1F)S(=O)(=O)c1ccc(Cl)cc1 [Example 388, N-(1,3-benzodioxol-5-ylmethyl)-3-[2-((1R)-1-{[(4-chlorophenyl)sulfonyl]-2,5-difluoroanilino}ethyl)phenyl]propanamide]
IC50 [4]: 50 to 100 nM

CC(C)CCCN(Cc1ccccc1OCCCN1CCCCC1)S(=O)(=O)c1ccc(Cl)cc1 [Example 951, 4-chloro-N-(4-methylpentyl)-N-{2-[3-(1-piperidinyl)propoxy]benzyl}benzenesulfonamide hydrochloride]
IC50 [1]: > 500 nM

C[C@@H]1CCC[C@H](C)N1CCCOc1ccccc1CN(c1ccccc1)S(=O)(=O)c1ccc(Cl)cc1 [Example 306, 4-Chloro-N-(2-{3-[(2R,6S)-2,6-dimethylpiperidinyl]propoxy}benzyl)-N-phenylbenzenesulfonamide Hydrochloride]
IC50 [5]: 50 to 100 nM

C[C@H](CCCN1CCCC(S(C)(=O)=O)C1)N(c1cc(Cl)ccc1Cl)S(=O)(=O)c1ccc(Cl)cc1 (stereo partly shown) [Example 1136]
IC50 [6]: 100 to 500 nM

C[C@H](COC(=O)NCCCn1ccnc1)N(c1cc(F)ccc1F)S(=O)(=O)c1ccc(Cl)cc1 [Example 517, 4-Chloro-N-(2,5-difluorophenyl)-N-[2-[[N′-[3-(1 h-imidazol-1-yl)propylamino]carbonyl]oxy]-(r)-1-methylethyl]benzenesulfonamide]
IC50 [5]: 100 to 500 nM

2-((1R)-1-{[(4-chlorophenyl)sulfonyl]-2,5-difluoroanilino}ethyl)benzyl 2,5-difluorobenzylcarbamate [Example 639]
IC50 [2]: 100 to 500 nM

4-chloro-N-(2,5-dichlorophenyl)-N-[3-[2-[4-chloro-N-(2,5-dichlorophenyl)-N-[(3-amino)-1(R)-methylpropyl]benzenesulfonamide]-3,4-dioxo-1-cyclobutenyl)amine-1(R)- [Example 1143]
IC50 [6]: 100 to 500 nM

C[C@H](c1ccc(F)cc1CCCC(=O)O)N(c1cc(F)ccc1F)S(=O)(=O)c1ccc(Cl)cc1 [Example 494, 4-[2-((1R)-1-{[(4-chlorophenyl)sulfonyl]-2,5-difluoroanilino}ethyl) 5-fluorophenyl]butanoic Acid]
IC50 [5]: 100 to 500 nM

C[C@H]([C@@H](C)OC(=O)NCCCn1ccnc1)N(c1cc(Cl)ccc1CO)S(=O)(=O)c1ccc(Cl)cc1 [Example 1246, 4-Chloro-N-[5-chloro-2-(hydroxymethyl)phenyl]-N-[2-[[N′-[3-(1H-imidazol-1-yl)propylamino]carbonyl]oxy]-(1R)-(2R)-dimethylethyl]benzenesulfonamide]
IC50 [6]: ≤ 25 nM

C[C@H](C(=O)NCCc1ccc(Cl)cc1Cl)N(c1cc(Cl)ccc1F)S(=O)(=O)c1ccc(Cl)cc1 [Example 1305]
IC50 [3]: > 500 nM

C[C@H](CCC[S+](C)[O-])N(c1cc(Cl)ccc1F)S(=O)(=O)c1ccc(Cl)cc1 (stereo partly drawn) [Example 1167, 4-chloro-N-[5-chloro-2-fluorophenyl]-N-[1(R)-methyl-(4-methylsulfinyl)butyl]benzenesulfonamide]
IC50 [6]: ≤ 25 nM

CSc1ccccc1N(Cc1ccccc1OCCCN1CCCCC1)S(=O)(=O)c1ccc(Cl)cc1 [Example 924, 4-chloro-N-[2-(methylsulfanyl)phenyl]-N-{2-[3-(1-piperidinyl)propoxy]benzyl}benzenesulfonamide hydrochloride]
IC50 [1]: > 500 nM

C[C@H](C(=O)NCc1cccc(I)c1)N(c1cc(Cl)ccc1F)S(=O)(=O)c1ccc(Cl)cc1 [Example 1330]
IC50 [3]: > 500 nM

C[C@H](COC(=O)N(C)CCO)N(c1cc(Cl)ccc1Cl)S(=O)(=O)c1ccc(Cl)cc1 [Example 1249, 4-Chloro-N-(2,5-dichlorophenyl)-N-[2-[[N′-[2-(hydroxyethyl)-N′-methylamino]carbonyl]oxy]-(R)-1-methylethyl]benzenesulfonamide]
IC50 [6]: ≤ 25 nM

3-chloro-N-{3-[2-(1-{[(4-chlorophenyl)sulfonyl]-2,5-difluoroanilino}ethyl)phenoxy]propyl}-N-methylbenzenesulfonamide [Example 684]
IC50 [2]: 100 to 500 nM

O=S(=O)(c1ccc(Cl)cc1)N(Cc1ccccc1OCCC[S+]([O-])C1CCCCC1)c1cc(F)ccc1F (stereo not shown) [Example 407, 4-chloro-N-{2-[3-(cyclohexylsulfinyl)propoxy]benzyl}-N-(2,5-difluorophenyl)benzenesulfonamide]
IC50 [4]: 50 to 100 nM

C[C@H](CCC[S+](C)[O-])N(c1cc(F)ccc1F)S(=O)(=O)c1ccc(Cl)cc1 (stereo partly drawn) [Example 1175, 4-chloro-N-[2,5-difluorophenyl]-N-[1(R)-methyl-(4-methylsulfinyl)butyl]benzenesulfonamide]
IC50 [6]: ≤ 25 nM

O=S(=O)(c1ccc(Cl)cc1)N(Cc1ccccc1OCCCN1CCC1)c1ccccc1 [Example 292, N-{2-[3-(1-azetidinyl)propoxy]benzyl}-4-chloro-N-phenylbenzenesulfonamide Hydrochloride]
IC50 [5]: 25 to 50 nM

C[C@H](COC(=O)N1CCCC1)N(c1cc(Cl)ccc1CO)S(=O)(=O)c1ccc(Cl)cc1 [Example 1287]
IC50 [3]: ≤ 25 nM
